Measured values: ChEMBL document CHEMBL1201862, “PubChem BioAssay data set” (2004)
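Protocol summary: plate cells (96-well), add compound at 5 concentrations, incubate 48 h, interpolate endpoints linearly. The concentration for 50% growth inhibition is given as GI50.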 The source made the active and inactive calls. Cut-off read from the data, not from the text of the source: active = GI50 up to about 1.1 µM and inactive = higher.

Key:
Assay in all cases: DTP human tumour cell line panel, 48 h
[1] = tested on: NCI-H460
[2] = tested on: SNB-75
[3] = tested on: ACHN
[4] = tested on: RPMI-8226
[5] = tested on: COLO 205
[6] = tested on: MDA-MB-435
[7] = tested on: KM12
[8] = tested on: CCRF-CEM
[9] = tested on: UACC-62
[10] = tested on: NCI-H226
[11] = tested on: LOX IMVI
[12] = tested on: OVCAR-8
[13] = tested on: Malme-3M
[14] = tested on: IGROV-1
[15] = tested on: OVCAR-5
[16] = tested on: SF-268
[17] = tested on: HCC 2998
[18] = tested on: UO-31

Structure (SMILES)	GI50 [1]	GI50 [2]	GI50 [3]	GI50 [4]	GI50 [5]	GI50 [6]	GI50 [7]	GI50 [8]	GI50 [9]	GI50 [10]	GI50 [11]	GI50 [12]	GI50 [13]	GI50 [14]	GI50 [15]	GI50 [16]	GI50 [17]	GI50 [18]
NCc1nnn(Cc2ccccc2)c1N	> 100 µM (inactive)	> 100 µM (inactive)	> 100 µM (inactive)	> 100 µM (inactive)	> 100 µM (inactive)	> 100 µM (inactive)	> 100 µM (inactive)	> 100 µM (inactive)	> 100 µM (inactive)	> 100 µM (inactive)	> 100 µM (inactive)	> 100 µM (inactive)	> 100 µM (inactive)	> 100 µM (inactive)	> 100 µM (inactive)	> 100 µM (inactive)	–	–
C=CCOc1ccc(C2c3c(n[nH]c3O)CC(O)(OCC)C2C(=O)OCC)cc1OC (stereo not drawn)	> 100 µM (inactive)	> 100 µM (inactive)	> 100 µM (inactive)	> 100 µM (inactive)	> 100 µM (inactive)	> 100 µM (inactive)	> 100 µM (inactive)	> 100 µM (inactive)	0.1 µM (active)	–	> 100 µM (inactive)	> 100 µM (inactive)	> 100 µM (inactive)	> 100 µM (inactive)	> 100 µM (inactive)	> 100 µM (inactive)	> 100 µM (inactive)	> 100 µM (inactive)
COc1ccc(/C=N/Nc2nc3ccccc3c(=O)n2-c2ccccc2)cc1	28.2 µM (inactive)	86.5 µM (inactive)	> 100 µM (inactive)	–	> 100 µM (inactive)	> 100 µM (inactive)	> 100 µM (inactive)	> 100 µM (inactive)	24.4 µM (inactive)	> 100 µM (inactive)	95.1 µM (inactive)	> 100 µM (inactive)	> 100 µM (inactive)	> 100 µM (inactive)	> 100 µM (inactive)	> 100 µM (inactive)	> 100 µM (inactive)	2.28 µM (inactive)
CC(CO)CCNc1ncnc2c1ncn2CCC(=O)O (stereo not drawn)	> 100 µM (inactive)	> 100 µM (inactive)	> 100 µM (inactive)	> 100 µM (inactive)	> 100 µM (inactive)	> 100 µM (inactive)	> 100 µM (inactive)	> 100 µM (inactive)	> 100 µM (inactive)	> 100 µM (inactive)	> 100 µM (inactive)	> 100 µM (inactive)	> 100 µM (inactive)	> 100 µM (inactive)	> 100 µM (inactive)	> 100 µM (inactive)	–	> 100 µM (inactive)
COC(=O)c1ccccc1C1CN=NC12Cc1c(C)cc(C)cc1C2=O (stereo not drawn)	> 100 µM (inactive)	58.2 µM (inactive)	> 100 µM (inactive)	–	> 100 µM (inactive)	> 100 µM (inactive)	> 100 µM (inactive)	> 100 µM (inactive)	> 100 µM (inactive)	> 100 µM (inactive)	> 100 µM (inactive)	> 100 µM (inactive)	> 100 µM (inactive)	> 100 µM (inactive)	> 100 µM (inactive)	> 100 µM (inactive)	> 100 µM (inactive)	> 100 µM (inactive)
COc1cccc(-c2nc(O)c3ccccc3n2)c1	23.2 µM (inactive)	–	20.8 µM (inactive)	–	37.8 µM (inactive)	14.9 µM (inactive)	25 µM (inactive)	> 10 µM (inactive)	20.1 µM (inactive)	–	52.6 µM (inactive)	28.4 µM (inactive)	21.6 µM (inactive)	24.5 µM (inactive)	39.4 µM (inactive)	19.4 µM (inactive)	22.3 µM (inactive)	22.4 µM (inactive)
CC[C@H]1C=CCC[C@@]2(C[C@@H]3CC[C@@H]4[C@H](C(=O)OCCCCCCCCCCCCCCCC(=O)O)[C@]5(CCC[C@@H](C)O5)NC(=[N+]34)N2)O1 [CRAMBESCIDIN 657]	0.188 µM (active)	–	0.175 µM (active)	0.109 µM (active)	0.139 µM (active)	0.141 µM (active)	0.207 µM (active)	0.005 µM (active)	0.0927 µM (active)	0.273 µM (active)	0.12 µM (active)	0.23 µM (active)	0.153 µM (active)	0.193 µM (active)	0.221 µM (active)	0.367 µM (active)	0.0973 µM (active)	0.125 µM (active)
CSc1nc(-c2cc3c(c(SC)n2)CCCCC3)cc2c1CCCCC2	> 100 µM (inactive)	34.3 µM (inactive)	> 100 µM (inactive)	> 100 µM (inactive)	> 100 µM (inactive)	> 100 µM (inactive)	> 100 µM (inactive)	> 100 µM (inactive)	> 100 µM (inactive)	> 100 µM (inactive)	> 100 µM (inactive)	> 100 µM (inactive)	–	22.8 µM (inactive)	> 100 µM (inactive)	50.7 µM (inactive)	> 100 µM (inactive)	> 100 µM (inactive)
CC(=O)N1CC(C)(C)c2c(C)c(O)c(C)c(C)c21	> 100 µM (inactive)	54.5 µM (inactive)	> 100 µM (inactive)	> 100 µM (inactive)	> 100 µM (inactive)	> 100 µM (inactive)	> 100 µM (inactive)	> 100 µM (inactive)	> 100 µM (inactive)	> 100 µM (inactive)	> 100 µM (inactive)	> 100 µM (inactive)	–	> 100 µM (inactive)	> 100 µM (inactive)	> 100 µM (inactive)	> 100 µM (inactive)	> 100 µM (inactive)
Nc1nc(N)c2c(n1)NC(c1ccccc1)CC(/C=C/c1ccc(Cl)cc1)=N2 (stereo not drawn)	4.41 µM (inactive)	18.5 µM (inactive)	10.8 µM (inactive)	3.12 µM (inactive)	2.7 µM (inactive)	3.59 µM (inactive)	3.52 µM (inactive)	4.84 µM (inactive)	11.6 µM (inactive)	6.64 µM (inactive)	3.49 µM (inactive)	5.28 µM (inactive)	13.5 µM (inactive)	2.72 µM (inactive)	17 µM (inactive)	15.3 µM (inactive)	–	9.12 µM (inactive)
CCN1C/C(=C\c2ccc(Cl)cc2)c2[nH]c(=O)c(C#N)c(-c3ccc(Cl)cc3)c2C1	> 100 µM (inactive)	–	> 100 µM (inactive)	> 100 µM (inactive)	> 100 µM (inactive)	> 100 µM (inactive)	> 100 µM (inactive)	71.6 µM (inactive)	> 100 µM (inactive)	> 100 µM (inactive)	> 100 µM (inactive)	–	> 100 µM (inactive)	> 100 µM (inactive)	> 100 µM (inactive)	> 100 µM (inactive)	> 100 µM (inactive)	–
COc1ccc2[nH]c3c([N+](=O)[O-])ccc(NCCCN(C)C)c3/c(=N/CCCN(C)C)c2c1	–	1.84 µM (inactive)	–	0.635 µM (active)	–	7.62 µM (inactive)	1.08 µM (active)	0.448 µM (active)	> 10 µM (inactive)	–	1.41 µM (inactive)	0.893 µM (active)	9.75 µM (inactive)	1.86 µM (inactive)	–	1.64 µM (inactive)	1.24 µM (inactive)	–
N#CI1OC(C(F)(F)F)(C(F)(F)F)c2ccccc21	24.8 µM (inactive)	13.9 µM (inactive)	18.2 µM (inactive)	29.3 µM (inactive)	12.9 µM (inactive)	17.8 µM (inactive)	17 µM (inactive)	18.7 µM (inactive)	18.4 µM (inactive)	17.8 µM (inactive)	18.8 µM (inactive)	16.3 µM (inactive)	–	16.4 µM (inactive)	19.2 µM (inactive)	17.8 µM (inactive)	20 µM (inactive)	14.6 µM (inactive)
Nc1ccc2nc3ccc(N)cc3[n+](-c3ccccc3)c2c1	32.8 µM (inactive)	42.1 µM (inactive)	72.3 µM (inactive)	> 100 µM (inactive)	4.55 µM (inactive)	50.4 µM (inactive)	36 µM (inactive)	> 100 µM (inactive)	64.7 µM (inactive)	–	15.7 µM (inactive)	–	18.6 µM (inactive)	37.3 µM (inactive)	29.9 µM (inactive)	29 µM (inactive)	> 100 µM (inactive)	> 100 µM (inactive)
COC1=CC(=O)c2c(c(-c3nc(C)cs3)cn2C)C1=O	1.25 µM (inactive)	1.75 µM (inactive)	4.73 µM (inactive)	2.52 µM (inactive)	12.4 µM (inactive)	0.409 µM (active)	3.95 µM (inactive)	4.5 µM (inactive)	2.99 µM (inactive)	16.7 µM (inactive)	0.804 µM (active)	4.56 µM (inactive)	–	4.29 µM (inactive)	6.76 µM (inactive)	6.44 µM (inactive)	4.28 µM (inactive)	4.53 µM (inactive)
CC(C)N(C(C)C)S(=O)(=O)CC12CCC(C/C1=N\O)C2 (stereo not drawn)	> 100 µM (inactive)	> 100 µM (inactive)	> 100 µM (inactive)	–	> 100 µM (inactive)	> 100 µM (inactive)	> 100 µM (inactive)	> 100 µM (inactive)	> 100 µM (inactive)	> 100 µM (inactive)	> 100 µM (inactive)	> 100 µM (inactive)	> 100 µM (inactive)	> 100 µM (inactive)	> 100 µM (inactive)	> 100 µM (inactive)	> 100 µM (inactive)	> 100 µM (inactive)
CC1(C)[C@@H]2CC[C@@]1(C)[C@H](O)[C@@H]2SCc1ccccc1	19.2 µM (inactive)	27.4 µM (inactive)	11.7 µM (inactive)	27.5 µM (inactive)	17.8 µM (inactive)	18.2 µM (inactive)	17.8 µM (inactive)	19 µM (inactive)	10.2 µM (inactive)	18.7 µM (inactive)	18.5 µM (inactive)	19.1 µM (inactive)	–	18.7 µM (inactive)	17 µM (inactive)	17.3 µM (inactive)	19.5 µM (inactive)	21 µM (inactive)
